Measurements from US20130143955A1, “Cyclic di-GMP-II Riboswitches, Motifs, and Compounds, and Methods for Their Use” (priority 2010, published 2013).
“And” between values parts separate entries of the source, which are not always exact repeats. Identical values can stand only once.

Assays:
[1] = tested on: 864 Cd Tandem RNA (c-di-GMP-II aptamer and group I ribozyme); assay: Self-splicing assays of the tandem riboswitch-ribozyme; assay type: biochemical, Clostridium difficile 630; conditions: for Rate constant, product 3′E* (alternative GTP attack product) / Rate constant, product 5′E-3′E (spliced exons): Internally 32P-labeled RNA; for Rate constant, product GTP1 (GTP attack at 5′ SS) / Rate constant, product GTP2 (alternative GTP attack site): Unlabeled RNA, [α-32P]GTP
Procedure: Initial ribozyme self-splicing reaction conditions were based on those previously reported for use with a group I ribozyme from Tetrahymena thermophile and consisted of incubations at 30° C. in the presence of 50 mM HEPES (pH 7.5 at 23° C.), 100 mM (NH4)2SO4, 5 mM MgCl2, and 0.1 mM GTP. At concentrations of MgCl2 above 10 mM and temperatures at 37° C. or above, the difference between the ligated exons and alternate GTP attack site products became less pronounced. A range of ligand concentrations were tested for both GTP (5 μM to 1 mM) and cyclic di-GMP ([…] to 100 μM) to determine the optimal amounts for splicing activity, based on probable biological relevance and degree of allosteric control.
Splicing assays for wild-type and mutant RNAs were carried out for 30 minutes (unless otherwise noted) under the conditions described above, with the addition of 50 μM GTP and/or 10 μM c-di-GMP when stated. Final RNA concentrations were lower than 1 μM for all reactions. Reaction mixtures containing unlabeled RNA were supplemented with 1 μCi/μL [α-^32P]GTP. Products were separated by denaturing 6% PAGE. Gels were dried and products were subsequently imaged using a PhosphorImager (Molecular Dynamics).
Aliquots from splicing reactions conducted with either 5′ or internally ^32P-labeled 864 Cd Tandem RNAs were removed at various incubation times and the reactions were terminated by the addition of stop buffer (see below). Similarly, time course experiments were conducted with unlabeled 864 Cd Tandem RNAs supplemented with ˜50 nCi/μL [α-^32P]GTP. Reactions were initiated by combining a solution containing RNA only (˜100 pM 5′ ^32P-labeled RNA, ˜1 μM internally ^32P-labeled RNA, or ˜10 nM unlabeled RNA) with a solution containing the buffer and any ligands to yield a final concentration of contents as described above. The two mixtures were briefly pre-heated at 30° C. and the reaction was initiated by the transfer of buffer/ligand solution to the RNA solution. The zero time point was removed prior to initiation of the reaction and immediately placed into an equivalent volume of stop buffer (8 M urea, 20% w/v sucrose, 0.1% SDS, 0.05% bromophenol blue, 0.05% xylene cyanol FF, 0.09 M Tris base, 0.09 M borate, 1 mM EDTA [pH 8.0]). Likewise, subsequent aliquots were removed at each time point and quenched by placement in stop buffer. Reaction products were separated as described above and dried gels were imaged using a PhosphorImager (Molecular Dynamics).
For precursor RNAs that were initially ^32P-labeled, rate constants for product formation were established by determining the yield of specific products relative to the unprocessed or misprocessed RNAs. First, an average background for each lane was calculated and subtracted from intensities of individual bands or lanes. Second, product band intensities were compared to the total intensity of their corresponding lane, which corrected for any differences due to sample loading. Third, the band intensity at time zero was subtracted from the corresponding bands of all other time points. Yields of products from assays conducted with internally ^32P-labeled RNAs were also corrected for the number of uridine nucleotides in the product RNA versus the total number of uridine nucleotides in the precursor RNA (252 nucleotides). This correction allows for direct comparison of the number of molecules present in each product band. The total fraction of RNA processed at 120 minutes is ˜40%. […] This extent of RNA misfolding, particularly in the absense of possible protein factors, is also typical of other large functional RNAs. Thus, at 120 minutes, approximately 80% of the total reactable RNA has undergone processing. The fractions of RNA processed for the internally ^32P-labeled RNA was adjusted to reflect this value of 80% at 120 minutes.
For splicing assays conducted using unlabeled precursor RNAs, determination of rate constants were conducted differently. […]

[2] = tested on: ompR riboswitch (c-di-GMP-II, ompR 5′ UTR); assay: Single-round transcription termination assay; assay type: biochemical, C. difficile; conditions: WT ompR construct, c-di-GMP 50 μM
Procedure: Single round transcription assays were conducted using a method (FIG. 7) adapted as described previously (data not shown) with the following modifications. The elongation mixture contained 50 μM UTP, and 150 μM each of ATP, GTP and CTP. Heparin was added at 0.1 mg/mL at initiation of elongation. For the reactions containing the second messenger, c-di-GMP was added to a final concentration of 50 μM.
A template DNA harboring the 5′ UTR of the ompR gene of C. difficile and its native promoter was prepared by PCR (see Table 4). The predicted intrinsic transcription termination site is 40 nucleotides shorter than the terminus of the template DNA. The ompR riboswitch is predicted to be an ‘ON’ switch based on its architecture. Therefore the full length transcript was expected to undergo decreased termination in the presence of c-di-GMP. Mutant templates M2 and M3 were constructed by PCR and confirmed by sequencing (see Table 4). A template DNA for production of a simulated intrinsic transcription termination product was generated by PCR and was used as a marker during PAGE analysis of transcription products.
Further evidence of aptamer-controlled transcription termination was observed by conducting single-round transcription assays in vitro using another C. difficile c-di-GMP-II construct from the ompR mRNA (FIG. 2C). […]

[3] = GTP + and c-di-GMP +, first 15 minutes

SMILES | EC50 ([1]; 5′ 32P-labeled 864 Cd Tandem RNA, 120 minutes, read-out: S50, concentration of c-di-GMP at which 5′E-3′E is half-maximally processed) | ratio of alternative attack product (3′E*) to spliced exons (5′E-3′E) ([1]; 120 minutes, c-di-GMP present) | increase in initial rate constant for GTP attack at the 5′ SS ([1]; GTP and c-di-GMP versus only GTP, unlabeled RNA, first 15 minutes) [fold] | Rate constant, product 3′E* (alternative GTP attack product) ([1]; GTP + and c-di-GMP +) [min⁻¹] | Rate constant, product 5′E-3′E (spliced exons) ([1]; GTP + and c-di-GMP +) | Rate constant, product GTP1 (GTP attack at 5′ SS) [1, 3] [min⁻¹] | Rate constant, product GTP2 (alternative GTP attack site) [1, 3] [min⁻¹] | increase in the production of spliced exons ([1]; presence versus absence of c-di-GMP, 120 minutes) [fold] | increase in the initial rate constant for spliced product formation ([1]; presence versus absence of c-di-GMP, internally labeled RNA) [fold] | production of full-length RNA transcript (transcription termination control) [2] | ratio of alternative attack product (3′E*) to spliced exons (5′E-3′E) ([1]; 120 minutes, absence of c-di-GMP (GTP only)) | Rate constant, product 3′E* (alternative GTP attack product) ([1]; GTP + and c-di-GMP −) [min⁻¹] | Rate constant, product 5′E-3′E (spliced exons) ([1]; GTP + and c-di-GMP −) | Rate constant, product GTP1 (GTP attack at 5′ SS) ([1]; GTP + and c-di-GMP −) [min⁻¹] | Rate constant, product GTP2 (alternative GTP attack site) ([1]; GTP + and c-di-GMP −) [min⁻¹]
Nc1nc2c(ncn2[C@@H]2O[C@@H]3COP(=O)(O)O[C@H]4[C@@H](O)[C@H](n5cnc6c(=O)[nH]c(N)nc65)O[C@@H]4COP(=O)(O)O[C@H]3[C@H]2O)c(=O)[nH]1 [c-di-GMP, cyclic di-GMP] | ~30 nM and 30 nM | near equal amounts | ~13 | 0.018 | 1.3×10^−2 min^−1 | 0.023 | 0.023 | ~8 | 12 | robust production of full-length RNA transcript only when c-di-GMP is added | – | – | – | – | –
Nc1nc2c(ncn2[C@@H]2O[C@H](COP(=O)(O)OP(=O)(O)OP(=O)(O)O)[C@@H](O)[C@H]2O)c(=O)[nH]1 [GTP] | – | – | – | – | – | – | – | – | – | – | more than 20 fold | 0.024 | 1.1×10^−3 min^−1 | 0.0018 | 0.027
